Assay results published in US20020137929A1, “1 - (3-heterocyclylphenyl) isothiourea, -isourea, -guanidine and -amidine herbicidal agents” (Intellectual Property Department, BASF Aktiengesellschaft, priority 1998, published 2002).

Key:
[1] = test system: ECHORC (Watergrass (Calif.)); experiment: Preemergence weed control under flooded paddy conditions; format: in vivo, Echinochloa oryzoides; conditions: rated 3-4 weeks after treatment
Procedure, shortened: (§1)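 First, seeds or propagules go into the top 0.5 cm of silt loam; next, water is held 1.5 to 3 cm over the soil; then compound (50/50 acetone/water) is pipetted into it at about 0.0313 to 0.500 kg/ha; finally plants are rated visually 0-9 after three to four weeks.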

ZEAMX (Corn, Field) = experiment: Preemergence herbicidal evaluation; format: in vivo, Zea mays; conditions: rated 4-5 weeks after treatment
Procedure, shortened: (§2)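 Test compound, dissolved in aqueous acetone, was sprayed over planted soil cups at an equivalent of about 0.0156 to 0.500 kg/ha; seeds had been mixed with potting soil. Greenhouse growth followed, with visual 0-9 scoring of injury at four to five weeks.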

[2] = test system: IPOHE (Morningglory, Ivyleaf); experiment: Postemergence herbicidal evaluation; format: in vivo, Ipomoea hederacea; conditions: for IPOHE herbicidal rating: postemergence
Procedure, shortened: (§3)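 Visual 0–9 rating versus control (stand, vigor, malformation, size, chlorosis, overall appearance), taken four to five weeks post-spray. Two-week-old seedlings received roughly 0.0156–0.500 kg/ha active in acetone/water (50/50) with 0.5% TWEEN 20 via nozzle at 40 psi.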

SETVI (Foxtail, Green) [3] = experiment: Postemergence herbicidal evaluation; format: in vivo, Setaria viridis; conditions: for SETVI herbicidal rating: postemergence
Procedure, shortened: as §3

ABUTH (Velvetleaf) = experiment: Preemergence herbicidal evaluation; format: in vivo, Abutilon theophrasti; conditions: rated 4-5 weeks after treatment
Procedure, shortened: as §2

CYPIR (Rice Flatsedge) = experiment: Preemergence weed control under flooded paddy conditions; format: in vivo, Cyperus iria; conditions: rated 3-4 weeks after treatment
Procedure, shortened: as §1

MOOVA (Monochoria) = experiment: as above; format: in vivo, Monochoria vaginalis; conditions: rated 3-4 weeks after treatment
Procedure, shortened: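 Greenhouse paddy assay. Acetone/water (50/50 v/v) solutions dosed into flood water, equivalent to about 0.0313 to 0.500 kg/ha active ingredient, over seeds planted 0.5 cm deep in silt loam. Score: 0-9 visual, based on stand, vigor, malformation, size and chlorosis, 3 to 4 weeks after treatment.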

GALAP (Galium) = experiment: Postemergence herbicidal evaluation; format: in vivo, Galium aparine; conditions: for GALAP herbicidal rating: postemergence
Procedure, shortened: as §3

SETVI (Foxtail, Green) [4] = experiment: Preemergence herbicidal evaluation; format: in vivo, Setaria viridis; conditions: rated 4-5 weeks after treatment
Procedure, shortened: as §2

ECHCG (Barnyardgrass) = experiment: Preemergence herbicidal evaluation; format: in vivo, Echinochloa crus-galli; conditions: rated 4-5 weeks after treatment
Procedure, shortened: as §2

[5] = test system: SAGPY (Arrowhead (Pygmaea)); experiment: Postemergence weed control under flooded paddy conditions; format: in vivo, Sagittaria pygmaea; conditions: postemergence weeds, 3-4 weeks after treatment
Procedure, shortened: (§4)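 Flood-water application, about 0.0313–0.500 kg/ha a.i. in aqueous/acetone 50/50 v/v; water depth 1.5–3 cm throughout. Weeds 3–5 cm, rice 1.5–2.5 leaf. Greenhouse; 0–9 visual rating vs control at 3–4 wk.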

[6] = test system: IPOHE (Morningglory, Ivyleaf); experiment: Preemergence herbicidal evaluation; format: in vivo, Ipomoea hederacea; conditions: rated 4-5 weeks after treatment
Procedure, shortened: as §2

[7] = test system: ECHORC (Watergrass (Calif.)); experiment: Postemergence weed control under flooded paddy conditions; format: in vivo, Echinochloa oryzoides; conditions: postemergence weeds, 3-4 weeks after treatment
Procedure, shortened: as §4

[8] = test system: TRZAWR (Wheat, Winter, cv Riband); experiment: Postemergence herbicidal evaluation; format: in vivo, Triticum aestivum; conditions: for TRZAWR herbicidal rating: postemergence
Procedure, shortened: as §3

Cn1c(C(F)(F)F)cc(=O)n(-c2cc(N=C3SCC(=O)N3CC(=O)NS(C)(=O)=O)c(Cl)cc2F)c1=O [Compound 38, 2-{{2-Chloro-5-[3,6-dihydro-3-methyl-2,6-dioxo-4-(trifluoromethyl)-1(2H)-pyrimidinyl]-4-fluoro-phenyl}imino}-N-(methylsulfonyl)-4-oxo-3-thiazolidineacetamide]
9.0: Postemergence herbicidal rating IPOHE ([2]; Rate 0.0156 kg/ha) | Postemergence herbicidal rating IPOHE ([2]; Rate 0.0313 kg/ha) | Postemergence herbicidal rating IPOHE ([2]; Rate 0.0625 kg/ha) | Postemergence herbicidal rating IPOHE ([2]; Rate 0.1250 kg/ha) | Postemergence herbicidal rating IPOHE ([2]; Rate 0.2500 kg/ha) | Postemergence herbicidal rating SETVI (SETVI (Foxtail, Green) [3]; Rate 0.1250 kg/ha) | Postemergence herbicidal rating SETVI (SETVI (Foxtail, Green) [3]; Rate 0.2500 kg/ha) | Preemergence herbicidal rating ABUTH (ABUTH (Velvetleaf); rate 0.0313 kg/ha) | Preemergence herbicidal rating ABUTH (ABUTH (Velvetleaf); rate 0.0625 kg/ha) | Preemergence herbicidal rating ABUTH (ABUTH (Velvetleaf); rate 0.1250 kg/ha) | Preemergence herbicidal rating ABUTH (ABUTH (Velvetleaf); rate 0.2500 kg/ha) | Herbicidal rating MOOVA (MOOVA (Monochoria); 0.0313 kg/ha) | Herbicidal rating MOOVA (MOOVA (Monochoria); 0.0625 kg/ha) | Herbicidal rating MOOVA (MOOVA (Monochoria); 0.1250 kg/ha) | Herbicidal rating MOOVA (MOOVA (Monochoria); 0.2500 kg/ha) | Preemergence herbicidal rating SETVI (SETVI (Foxtail, Green) [4]; rate 0.2500 kg/ha) | Herbicidal rating SAGPY ([5]; rate 0.2500 kg/ha) | Preemergence herbicidal rating IPOHE ([6]; rate 0.2500 kg/ha)
7.0: Herbicidal rating ECHORC ([1]; 0.2500 kg/ha) | Preemergence herbicidal rating SETVI (SETVI (Foxtail, Green) [4]; rate 0.1250 kg/ha) | Herbicidal rating ECHORC ([7]; rate 0.2500 kg/ha)
4.0: Herbicidal rating ECHORC ([1]; 0.1250 kg/ha) | Preemergence herbicidal rating ZEAMX (ZEAMX (Corn, Field); rate 0.2500 kg/ha) | Herbicidal rating SAGPY ([5]; rate 0.1250 kg/ha) | Preemergence herbicidal rating IPOHE ([6]; rate 0.0625 kg/ha) | Herbicidal rating ECHORC ([7]; rate 0.1250 kg/ha)
1.0: Postemergence herbicidal rating GALAP (GALAP (Galium); Rate 0.0313 kg/ha) | Preemergence herbicidal rating ECHCG (ECHCG (Barnyardgrass); rate 0.2500 kg/ha)
5.0: Postemergence herbicidal rating SETVI (SETVI (Foxtail, Green) [3]; Rate 0.0625 kg/ha) | Herbicidal rating CYPIR (CYPIR (Rice Flatsedge); 0.1250 kg/ha) | Herbicidal rating CYPIR (CYPIR (Rice Flatsedge); 0.2500 kg/ha) | Preemergence herbicidal rating IPOHE ([6]; rate 0.1250 kg/ha) | Postemergence herbicidal rating TRZAWR ([8]; Rate 0.0156 kg/ha)
2.0: Herbicidal rating ECHORC ([1]; 0.0625 kg/ha) | Herbicidal rating ECHORC ([7]; rate 0.0625 kg/ha)
3.0: Postemergence herbicidal rating SETVI (SETVI (Foxtail, Green) [3]; Rate 0.0313 kg/ha) | Herbicidal rating CYPIR (CYPIR (Rice Flatsedge); 0.0313 kg/ha) | Herbicidal rating CYPIR (CYPIR (Rice Flatsedge); 0.0625 kg/ha) | Postemergence herbicidal rating GALAP (GALAP (Galium); Rate 0.0625 kg/ha) | Postemergence herbicidal rating GALAP (GALAP (Galium); Rate 0.1250 kg/ha) | Preemergence herbicidal rating SETVI (SETVI (Foxtail, Green) [4]; rate 0.0625 kg/ha) | Herbicidal rating SAGPY ([5]; rate 0.0625 kg/ha)
8.0: Postemergence herbicidal rating GALAP (GALAP (Galium); Rate 0.2500 kg/ha) | Postemergence herbicidal rating TRZAWR ([8]; Rate 0.1250 kg/ha) | Postemergence herbicidal rating TRZAWR ([8]; Rate 0.2500 kg/ha)
0.0: Herbicidal rating ECHORC ([1]; 0.0313 kg/ha) | Preemergence herbicidal rating ZEAMX (ZEAMX (Corn, Field); rate 0.0313 kg/ha) | Preemergence herbicidal rating ZEAMX (ZEAMX (Corn, Field); rate 0.0625 kg/ha) | Preemergence herbicidal rating ZEAMX (ZEAMX (Corn, Field); rate 0.1250 kg/ha) | Postemergence herbicidal rating SETVI (SETVI (Foxtail, Green) [3]; Rate 0.0156 kg/ha) | Postemergence herbicidal rating GALAP (GALAP (Galium); Rate 0.0156 kg/ha) | Preemergence herbicidal rating SETVI (SETVI (Foxtail, Green) [4]; rate 0.0313 kg/ha) | Preemergence herbicidal rating ECHCG (ECHCG (Barnyardgrass); rate 0.0313 kg/ha) | Preemergence herbicidal rating ECHCG (ECHCG (Barnyardgrass); rate 0.0625 kg/ha) | Preemergence herbicidal rating ECHCG (ECHCG (Barnyardgrass); rate 0.1250 kg/ha) | Herbicidal rating SAGPY ([5]; rate 0.0313 kg/ha) | Preemergence herbicidal rating IPOHE ([6]; rate 0.0313 kg/ha) | Herbicidal rating ECHORC ([7]; rate 0.0313 kg/ha)
6.5: Postemergence herbicidal rating TRZAWR ([8]; Rate 0.0625 kg/ha)
5.5: Postemergence herbicidal rating TRZAWR ([8]; Rate 0.0313 kg/ha)

C=CCN1C(=O)CSC1=Nc1cc(-n2c(=O)cc(C(F)(F)F)n(C)c2=O)c(F)cc1Cl [Compound 27]
0.0: Preemergence herbicidal rating ZEAMX (ZEAMX (Corn, Field); rate 0.0156 kg/ha) | Preemergence herbicidal rating SETVI (SETVI (Foxtail, Green) [4]; rate 0.0156 kg/ha) | Preemergence herbicidal rating ECHCG (ECHCG (Barnyardgrass); rate 0.0156 kg/ha) | Herbicidal rating SAGPY ([5]; rate 0.0313 kg/ha) | Herbicidal rating SAGPY ([5]; rate 0.0625 kg/ha) | Preemergence herbicidal rating IPOHE ([6]; rate 0.0156 kg/ha) | Preemergence herbicidal rating IPOHE ([6]; rate 0.0313 kg/ha)
8.0: Preemergence herbicidal rating ZEAMX (ZEAMX (Corn, Field); rate 0.0625 kg/ha) | Preemergence herbicidal rating ECHCG (ECHCG (Barnyardgrass); rate 0.0313 kg/ha) | Preemergence herbicidal rating IPOHE ([6]; rate 0.0625 kg/ha)
6.0: Herbicidal rating ECHORC ([1]; 0.0313 kg/ha) | Herbicidal rating CYPIR (CYPIR (Rice Flatsedge); 0.1250 kg/ha) | Herbicidal rating ECHORC ([7]; rate 0.0313 kg/ha)
9.0: Herbicidal rating ECHORC ([1]; 0.1250 kg/ha) | Herbicidal rating ECHORC ([1]; 0.2500 kg/ha) | Preemergence herbicidal rating ZEAMX (ZEAMX (Corn, Field); rate 0.1250 kg/ha) | Preemergence herbicidal rating ZEAMX (ZEAMX (Corn, Field); rate 0.2500 kg/ha) | IPOHE herbicidal rating ([2]; rate 0.0158 kg/ha) | IPOHE herbicidal rating ([2]; rate 0.0315 kg/ha) | IPOHE herbicidal rating ([2]; rate 0.0630 kg/ha) | SETVI herbicidal rating (SETVI (Foxtail, Green) [3]; rate 0.0630 kg/ha) | Preemergence herbicidal rating ABUTH (ABUTH (Velvetleaf); rate 0.0313 kg/ha) | Preemergence herbicidal rating ABUTH (ABUTH (Velvetleaf); rate 0.0625 kg/ha) | Preemergence herbicidal rating ABUTH (ABUTH (Velvetleaf); rate 0.1250 kg/ha) | Preemergence herbicidal rating ABUTH (ABUTH (Velvetleaf); rate 0.2500 kg/ha) | Herbicidal rating CYPIR (CYPIR (Rice Flatsedge); 0.2500 kg/ha) | Herbicidal rating MOOVA (MOOVA (Monochoria); 0.0313 kg/ha) | Herbicidal rating MOOVA (MOOVA (Monochoria); 0.0625 kg/ha) | Herbicidal rating MOOVA (MOOVA (Monochoria); 0.1250 kg/ha) | Herbicidal rating MOOVA (MOOVA (Monochoria); 0.2500 kg/ha) | Preemergence herbicidal rating SETVI (SETVI (Foxtail, Green) [4]; rate 0.0313 kg/ha) | Preemergence herbicidal rating SETVI (SETVI (Foxtail, Green) [4]; rate 0.0625 kg/ha) | Preemergence herbicidal rating SETVI (SETVI (Foxtail, Green) [4]; rate 0.1250 kg/ha) | Preemergence herbicidal rating SETVI (SETVI (Foxtail, Green) [4]; rate 0.2500 kg/ha) | Preemergence herbicidal rating ECHCG (ECHCG (Barnyardgrass); rate 0.0625 kg/ha) | Preemergence herbicidal rating ECHCG (ECHCG (Barnyardgrass); rate 0.1250 kg/ha) | Preemergence herbicidal rating ECHCG (ECHCG (Barnyardgrass); rate 0.2500 kg/ha) | Preemergence herbicidal rating IPOHE ([6]; rate 0.1250 kg/ha) | Preemergence herbicidal rating IPOHE ([6]; rate 0.2500 kg/ha) | Herbicidal rating ECHORC ([7]; rate 0.1250 kg/ha) | Herbicidal rating ECHORC ([7]; rate 0.2500 kg/ha)
2.0: SETVI herbicidal rating (SETVI (Foxtail, Green) [3]; rate 0.0158 kg/ha)
7.0: Herbicidal rating ECHORC ([1]; 0.0625 kg/ha) | Preemergence herbicidal rating ZEAMX (ZEAMX (Corn, Field); rate 0.0313 kg/ha) | Preemergence herbicidal rating ABUTH (ABUTH (Velvetleaf); rate 0.0156 kg/ha) | Herbicidal rating ECHORC ([7]; rate 0.0625 kg/ha)
4.5: TRZAWR herbicidal rating ([8]; rate 0.0630 kg/ha)
3.0: Herbicidal rating CYPIR (CYPIR (Rice Flatsedge); 0.0313 kg/ha) | TRZAWR herbicidal rating ([8]; rate 0.0158 kg/ha)
1.0: GALAP herbicidal rating (GALAP (Galium); rate 0.0158 kg/ha)
4.0: SETVI herbicidal rating (SETVI (Foxtail, Green) [3]; rate 0.0315 kg/ha) | Herbicidal rating CYPIR (CYPIR (Rice Flatsedge); 0.0625 kg/ha) | GALAP herbicidal rating (GALAP (Galium); rate 0.0315 kg/ha) | GALAP herbicidal rating (GALAP (Galium); rate 0.0630 kg/ha) | Herbicidal rating SAGPY ([5]; rate 0.1250 kg/ha) | Herbicidal rating SAGPY ([5]; rate 0.2500 kg/ha) | TRZAWR herbicidal rating ([8]; rate 0.0315 kg/ha)
